Data set [1] in a line: Rate of dissolution in H2O at 25° C. of rebaudioside A polymorph and amorphous forms. Type of data set: physicochemical. The text has this:
The purification of rebaudioside A by crystallization as described above results in the formation of at least three different polymorphs: Form 1: a rebaudioside A hydrate; Form 2: an anhydrous rebaudioside A; and Form 3: a rebaudioside A solvate. In addition to the at least three polymorph forms of rebaudioside A, the purification of rebaudioside A may result in the formation of an amorphous form of rebaudioside A, Form 4. The aqueous organic solution and temperature of the purification process influence the resulting polymorph and amorphous forms in the substantially pure rebaudioside A composition. FIGS. 1-5 are exemplary powder x-ray diffraction (XRPD) scans of the polymorph and amorphous forms of rebaudioside A: Form 1 (hydrate), Form 2 (anhydrate), Form 3A (methanol solvate), Form 3B (ethanol solvate), and Form 4 (amorphous), respectively.

Data set [2] is classed as physicochemical. How it is done: A solution of rebaudioside A (>97% pure by HPLC) was prepared in double distilled water (12.5 gm in 50 mL, 25% concentration) by stirring the mixture at 40° C. for 5 minutes. An amorphous form of rebaudioside A was formed by immediately using the clear solution for spray drying with the Lab-Plant spray drier SD-04 instrument (Lab-Plant Ltd., West Yorkshire, U.K.). The solution was fed through the feed pump into the nozzle atomizer which atomized it into a spray of droplets with the help of a constant flow of nitrogen/air. […] This dry powder (11-12 g, H2O 6.74%) was discharged continuously from the drying chamber and was collected in a bottle.

Experimental findings from patent US20080107787A1, “Anti-Diabetic Composition with High-Potency Sweetener” (THE COCA-COLA COMPANY, priority 2006, published 2008) are described below.

Turning to rebaudioside A [Form 2], the “Rate of dissolution in H2O at 25° C.” value in data set [1] (graded Intermediate or High) is “Intermediate (<30%/5 %/5 minutes”.

Take rebaudioside A [Form 4]: in data set [2], the “solubility in water at room temperature” value was over 35.0%. Further, the “Rate of dissolution in H2O at 25° C.” value in data set [1] (graded Intermediate or High) is “High (>35%/5 %/5 minutes”.

Turning to rebaudioside A [Form 3], the “Rate of dissolution in H2O at 25° C.” value in data set [1] (graded Intermediate or High) was “High (>30%/5 %/5 minutes”.

In the case of rebaudioside A [Form 1], the “Rate of dissolution in H2O at 25° C.” value in data set [1] (graded Very low) is “Very low (<0.2%/60 %/60 minutes”.
